According to patent US10294202B2, “Pyrrolidinones as herbicides” (FMC Corporation, priority 2013, dated 2019):

How the values were obtained:
barnyardgrass = experiment: Test A pre-/postemergence herbicide test; format: in vivo, Echinochloa crus-galli
In short: (§1)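 Approximately 10 days after treatment in the greenhouse, plants were compared with untreated controls and given a 0–100 visual injury rating. Applications: preemergence directed soil spray; postemergence on 2–10 cm plants at the one- to two-leaf stage.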

ryegrass, Italian = experiment: Test A pre-/postemergence herbicide test; format: in vivo, Lolium multiflorum
In short: as §1

pigweed = experiment: Test A pre-/postemergence herbicide test; format: in vivo, Amaranthus retroflexus
In short: as §1

corn = experiment: Test C pre-/postemergence herbicide test; format: in vivo, Zea mays
In short: (§2)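 Plants grown and held in a greenhouse for 13 to 15 days post-spray, then rated 0–100 by visual comparison with controls. Pre treatments targeted seeds in loam and sand; post treatments targeted 1- to 4-leaf plants in peat-based potting medium.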

nutsedge, yellow = experiment: Test C pre-/postemergence herbicide test; format: in vivo, Cyperus esculentus
In short: as §2

ragweed = experiment: Test C pre-/postemergence herbicide test; format: in vivo, Ambrosia elatior
In short: as §2

oat, wild = experiment: Test C pre-/postemergence herbicide test; format: in vivo, Avena fatua; settings: Postemergence
Source text: Seeds of plant species selected from blackgrass (Alopecurus myosuroides), ryegrass, Italian (Italian ryegrass, Lolium multiflorum), wheat (winter wheat, Triticum aestivum), galium (catchweed bedstraw, Galium aparine), corn (Zea mays), crabgrass, large (large crabgrass, Digitaria sanguinalis), foxtail, giant (giant foxtail, Setaria faberii), johnsongrass (Sorghum halepense), lambsquarters (Chenopodium album), morningglory (Ipomoea coccinea), nutsedge, yellow (yellow nutsedge, Cyperus esculentus), pigweed (Amaranthus retroflexus), ragweed (common ragweed, Ambrosia elatior), soybean (Glycine max), barnyardgrass (Echinochloa crus-galli), oilseed rape (Brassica napus), waterhemp (common waterhemp, Amaranthus rudis), kochia (Kochia scoparia), oat, wild (wild oat, Avena fatua), surinam grass (Brachiaria decumbens), foxtail, green (green foxtail, Setaria viridis), goosegrass (Eleusine indica), bromegrass, downy (downy bromegrass, Bromus tectorum), nightshade (eastern black nightshade, Solanum ptycanthum), cocklebur (common cocklebur, Xanthium strumarium), cupgrass, woolly (woolly cupgrass, Eriochloa villosa), bermudagrass (Cynodon dactylon), sunflower, (common oilseed sunflower, Helianthus annuus), Russian thistle (Salsola kali) and velvetleaf (Abutilon theophrasti) were planted into a blend of loam soil and sand and treated preemergence with test chemicals formulated in a non-phytotoxic solvent mixture which included a surfactant. At the same time, plants selected from these crop and weed species and also barley (winter barley, Hordeum vulgare), […]), chickweed (common chickweed, Stellaria media), deadnettle (henbit deadnettle, Lamium amplexicaule), and canarygrass (littleseed canarygrass, Phalaris minor) were planted in pots containing Redi-Earth® planting medium (Scotts Company, 14111 Scottslawn Road, Marysville, Ohio 43041) comprising spaghnum peat moss, vermiculite, wetting agent and starter nutrients and treated with postemergence applications of test chemicals formulated in the same manner. Plants ranged in height from 2 to 18 cm (1- to 4-leaf stage) for postemergence treatments. Treated plants and controls were maintained in a greenhouse for 13 to 15 days, after which time all species were compared to controls and visually evaluated. Plant response ratings, summarized in Table C, are based on a scale of 0 to 100 where 0 is no effect and 100 is complete control. A dash (-) response means no test result.

[1] = Postemergence, 125 g ai/ha, visual rating on 0 to 100 scale (0 no effect, 100 complete control), approx. 10 days
[2] = Postemergence, 500 g ai/ha, 0 to 100 scale (0 no effect, 100 complete control)
[3] = Preemergence, 125 g ai/ha, 0 to 100 scale where 0 is no effect and 100 is complete control
[4] = Preemergence, 500 g ai/ha, visual rating on 0 to 100 scale (0 no effect, 100 complete control)
[5] = Postemergence, 31 g ai/ha, scale 0 to 100 (0 no effect, 100 complete control)
[6] = Postemergence, 62 g ai/ha, scale 0 (no effect) to 100 (complete control)
[7] = Postemergence, 125 g ai/ha, scale 0 to 100 (0 no effect, 100 complete control)
[8] = Postemergence, 250 g ai/ha, scale 0 to 100 (0 no effect, 100 complete control)
[9] = Preemergence, 31 g ai/ha, scale 0 to 100, 0 is no effect and 100 is complete control
[10] = Preemergence, 62 g ai/ha, scale 0 to 100 (0 no effect, 100 complete control)
[11] = Preemergence, 125 g ai/ha, scale 0 to 100
[12] = 31 g ai/ha, scale 0 to 100 (0 no effect, 100 complete control)
[13] = 62 g ai/ha, scale 0 (no effect) to 100 (complete control)
[14] = 125 g ai/ha, scale 0 to 100 (0 no effect, 100 complete control)
[15] = 250 g ai/ha, scale 0 to 100 (0 no effect, 100 complete control)
[16] = Postemergence, 16 g ai/ha, scale 0 to 100 (0 no effect, 100 complete control)
[17] = Preemergence, 125 g ai/ha, scale 0 to 100 (0 no effect, 100 complete control)
[18] = Preemergence, 16 g ai/ha, scale 0 to 100

Row | SMILES | Plant response rating, Barnyardgrass (barnyardgrass; [1]) | Plant response rating, Barnyardgrass (barnyardgrass; [2]) | Plant response rating, Barnyardgrass (barnyardgrass; [3]) | Barnyardgrass plant response rating (barnyardgrass; [4]) | Plant response rating, Ryegrass, Italian (ryegrass, Italian; [1]) | Plant response rating, Ryegrass, Italian (ryegrass, Italian; [2]) | Plant response rating, Ryegrass, Italian (ryegrass, Italian; [3]) | Ryegrass, Italian plant response rating (ryegrass, Italian; [4]) | Plant response rating, Pigweed (pigweed; [1]) | Plant response rating, Pigweed (pigweed; [2]) | Plant response rating, Pigweed (pigweed; [3]) | Pigweed plant response rating (pigweed; [4]) | Plant response rating, Corn (corn; [5]) | Plant response rating, Corn (corn; [6]) | Plant response rating, Corn (corn; [7]) | Corn plant response rating (corn; [9]) | Corn plant response rating (corn; [10]) | Plant response rating, Nutsedge, Yellow (nutsedge, yellow; [5]) | Plant response rating, Nutsedge, Yellow (nutsedge, yellow; [6]) | Plant response rating, Nutsedge, Yellow (nutsedge, yellow; [7]) | further results
1 | O=C1NCC(c2cccc(OC(F)F)c2)C1C(=O)Nc1ccc(F)c(F)c1F (centres unmarked) [Compound 325] | 90 | 90 | 90 | 90 | 30 | 50 | 30 | 50 | 40 | 50 | 30 | 60 | 0 | 0 | 10 | 10 | 60 | 0 | 0 | 0 | Plant response rating, Corn (corn; [8]): 35; Plant response rating, Corn (corn; [11]): 70; Plant response rating (scale of 0 to 100), Corn (corn; Preemergence, 250 g ai/ha): 85; Plant response rating, Nutsedge, Yellow (nutsedge, yellow; [8]): 0; Nutsedge, Yellow plant response rating (nutsedge, yellow; [9]): 0; Nutsedge, Yellow plant response rating (nutsedge, yellow; [10]): 0; Plant response rating, Nutsedge, Yellow (nutsedge, yellow; [11]): 0; Plant response rating (scale of 0 to 100), Nutsedge, Yellow (nutsedge, yellow; Preemergence, 250 g ai/ha): 0; Plant response rating, Ragweed (ragweed; [5]): 10; Plant response rating, Ragweed (ragweed; [6]): 10; Plant response rating, Ragweed (ragweed; [7]): 25; Plant response rating, Ragweed (ragweed; [8]): 35; Ragweed plant response rating (ragweed; [10]): 60; Plant response rating, Ragweed (ragweed; [11]): 80; Plant response rating, Oat, Wild (oat, wild; [12]): 0; Plant response rating, Oat, Wild (oat, wild; [13]): 0; Plant response rating, Oat, Wild (oat, wild; [14]): 5; Plant response rating, Oat, Wild (oat, wild; [15]): 15
2 | O=C1NCC(c2cccc(C(F)(F)F)c2)C1C(=O)Nc1ccccc1Cl (centres unmarked) [Compound 312] | 80 | 90 | 80 | 90 | 20 | 40 | 20 | 60 | 20 | 30 | 0 | 20 | 0 | 15 | 10 | 10 | 60 | 0 | 0 | 0 | Plant response rating, Corn (corn; [8]): 10; Plant response rating, Corn (corn; [11]): 55; Plant response rating (scale of 0 to 100), Corn (corn; Preemergence, 250 g ai/ha): 70; Plant response rating, Nutsedge, Yellow (nutsedge, yellow; [8]): 0; Nutsedge, Yellow plant response rating (nutsedge, yellow; [9]): 0; Nutsedge, Yellow plant response rating (nutsedge, yellow; [10]): 35; Plant response rating, Nutsedge, Yellow (nutsedge, yellow; [11]): 0; Plant response rating (scale of 0 to 100), Nutsedge, Yellow (nutsedge, yellow; Preemergence, 250 g ai/ha): 0; Plant response rating, Ragweed (ragweed; [5]): 40; Plant response rating, Ragweed (ragweed; [6]): 35; Plant response rating, Ragweed (ragweed; [7]): 45; Plant response rating, Ragweed (ragweed; [8]): 55; Ragweed plant response rating (ragweed; [10]): 0; Plant response rating, Ragweed (ragweed; [11]): 50; Plant response rating (scale of 0 to 100), Ragweed (ragweed; Preemergence, 250 g ai/ha): 10; Plant response rating, Oat, Wild (oat, wild; [12]): 0; Plant response rating, Oat, Wild (oat, wild; [13]): 0; Plant response rating, Oat, Wild (oat, wild; [14]): 0; Plant response rating, Oat, Wild (oat, wild; [15]): 0
3 | CN1CC(c2ccc(C(F)(F)F)cc2)C(C(=O)Nc2ccccc2F)C1=O (centres unmarked) [Compound 304] | 80 | 90 | 90 | 90 | 50 | 50 | 0 | 0 | 40 | 60 | 70 | 80 | 0 | 0 | 5 | 0 | 40 | 0 | 0 | 0 | Plant response rating, Corn (corn; [16]): 0; Plant response rating, Corn (corn; [17]): 65; Plant response rating, Corn (corn; [18]): 0; Plant response rating, Nutsedge, Yellow (nutsedge, yellow; [16]): 0; Nutsedge, Yellow plant response rating (nutsedge, yellow; [9]): 0; Nutsedge, Yellow plant response rating (nutsedge, yellow; [10]): 25; Plant response rating, Nutsedge, Yellow (nutsedge, yellow; [17]): 0; Plant response rating, Nutsedge, Yellow (nutsedge, yellow; [18]): 0; Plant response rating, Ragweed (ragweed; [16]): 0; Plant response rating, Ragweed (ragweed; [5]): 0; Plant response rating, Ragweed (ragweed; [6]): 0; Plant response rating, Ragweed (ragweed; [7]): 35; Ragweed plant response rating (ragweed; [9]): 60; Ragweed plant response rating (ragweed; [10]): 60; Plant response rating, Ragweed (ragweed; [17]): 80; Plant response rating, Ragweed (ragweed; [18]): 25; Plant response rating, Oat, Wild (oat, wild; 16 g ai/ha, scale 0 to 100 (0 no effect, 100 complete control)): 0; Plant response rating, Oat, Wild (oat, wild; [12]): 0; Plant response rating, Oat, Wild (oat, wild; [13]): 0; Plant response rating, Oat, Wild (oat, wild; [14]): 0
4 | O=C1NCC(c2cccc(C(F)(F)F)c2)C1C(=O)Nc1cccc(Cl)c1F (centres unmarked) [Compound 316] | 80 | 90 | 80 | 90 | 20 | 30 | 20 | 50 | 0 | 20 | 20 | 20 | 0 | 0 | 0 | 15 | 75 | 0 | 0 | 0 | Plant response rating, Corn (corn; [8]): 0; Plant response rating, Corn (corn; [11]): 65; Plant response rating (scale of 0 to 100), Corn (corn; Preemergence, 250 g ai/ha): 75; Plant response rating, Nutsedge, Yellow (nutsedge, yellow; [8]): 0; Nutsedge, Yellow plant response rating (nutsedge, yellow; [9]): 0; Nutsedge, Yellow plant response rating (nutsedge, yellow; [10]): 0; Plant response rating, Nutsedge, Yellow (nutsedge, yellow; [11]): 0; Plant response rating (scale of 0 to 100), Nutsedge, Yellow (nutsedge, yellow; Preemergence, 250 g ai/ha): 70; Plant response rating, Ragweed (ragweed; [5]): 45; Plant response rating, Ragweed (ragweed; [6]): 0; Plant response rating, Ragweed (ragweed; [7]): 35; Plant response rating, Ragweed (ragweed; [8]): 65; Ragweed plant response rating (ragweed; [10]): 0; Plant response rating, Ragweed (ragweed; [11]): 10; Plant response rating, Oat, Wild (oat, wild; [12]): 0; Plant response rating, Oat, Wild (oat, wild; [13]): 0; Plant response rating, Oat, Wild (oat, wild; [14]): 5; Plant response rating, Oat, Wild (oat, wild; [15]): 30
